Type in all cases: cell-based
The subject of one assay is keratinocytes. As to the kind of experiment: ATP Assay: ATP depletion caused by hydrogen peroxide in keratinocytes (Cell Titer-Glo). To be noted: 1 hour. Here is the method: The keratinocytes were cultured in T150 flasks using EPILIFE brand culture medium (calcium free and phenol red free, supplemented with penicillin/streptomycin and keratinocytes growth supplement, Invitrogen cat# […]500). The keratinocytes were then plated in 24 well plates with 40,000 cells/well and 1 ml of culture medium. After 24 hours, the keratinocytes were treated with 500 uM hydrogen peroxide alone, 400 uM niacinamide, 400 uM nicotinamide riboside or a combination of niacinamide and nicotinamide riboside (400 uM each) for 1 hour. Untreated keratinocytes were used as a control (i.e., keratinocytes in culture medium). The keratinocytes were washed in PBS and ATP levels were measured using the Cell Titer-Glo® brand ATP assay available from Promega, Madison, Wis. as catalogue # G7571/2/3 according to the manufacturer's instructions. Luminescence was measured on a SPECTRAMAX M3 brand microplate reader (Molecular Devices, Sunnyvale, Calif.). The net luminescence for a test sample is calculated by subtracting the observed luminescence value for the control from the observed luminescence value for the test sample.

For assay [1], the system named is human dermal fibroblasts obtained from the BJ cell line. As to the kind of experiment: ECAR Method: glycolytic ATP production rate of fibroblasts exposed to hydrogen peroxide. Particulars: for % Change from Control: vs media control. On the procedure: Glycolytic ATP production by fibroblasts exposed to hydrogen peroxide was determined using an XF Extracellular Flux brand analyzer available from Seahorse Bioscience, Massachusetts The analyzer measured extracellular acidification rate (“ECAR”) in real time, which correlates to glycolytic ATP production. The cells used in this test were frozen human dermal fibroblasts obtained from the BJ cell line commercially available from ATCC, Bethesda, Md. […] The fibroblasts were plated at 8×10^4 cells per well in gelatin-coated plates 24 hours prior to testing. Each well included 100 μL of the culture medium described above. The gelatin-coated plates are prepared by coating each well in a multi-well plate (e.g., 24-well or 96-well plates available from Seahorse Biosciences, Massachusetts) with 0.2% gelatin (protein solution available from Sigma) diluted with phosphate buffered saline (“PBS”). The gelatin is diluted 1:10 to 0.2% in sterile PBS at 37° C., and then 50 uL of the diluted gelatin solution is added to each well and incubated at room temperature for 30 minutes. Excess liquid is removed by aspiration without touching the wells and the surface is allowed to dry for at least 2 hours. Hydrogen peroxide is a well-known ROS, and is used in this example as a source of oxidative stress on the fibroblasts being tested. A stressor solution of hydrogen peroxide was prepared at 10× working concentration in the fibroblast test medium described above. The test agents (i.e., nicotinamide riboside, niacinamide, and nicotinamide riboside+niacinamide in combination) were prepared at 10× the final working concentration in the fibroblast test medium to provide test agent solutions. The stressor solution and the test agent solutions were warmed to 37° C. and pH adjusted to 7.4. A fibroblast test medium was made from Dulbecco's Modified Eagle Medium (available from Seahorse Bioscience), 25 mM glucose and 1 mM pyruvate. The fibroblast test medium was warmed to 37° C. and the pH adjusted to 7.4. The cells were grown and plated at 37° C. and 5% CO2 air. The culture medium in the wells was replaced by the fibroblast test medium 1 hour prior to taking measurements. Each well contained approximately 8×10^4 cells and 600 μL of fibroblast test medium (i.e., DMEM, 25 mM glucose and 1 mM pyruvate) at 37° C. and pH 7.4. The plates containing the samples to be tested were loaded into the analyzer and equilibrated according to the manufacturer's instructions. The test agent solutions and stressor solution were each placed in an automated injection port of the XF cartridge plate. The analyzer was programmed to sequentially run a two minute mix cycle, a two minute wait cycle, and a 3 minute measurement cycle continuously for at least 88 minutes. Data points were collected and recorded by the analyzer. The analyzer was allowed to complete three cycles prior to the addition of a stressor solution or test agent solution to provide a basal ECAR value. After the third cycle was completed (i.e., about 21 minutes after detection began), the test solution and/or stressor solution was added to the wells by the analyzer from the appropriate injection port. A stressor solution was added to the well in sufficient amount to provide 1.5 mM hydrogen peroxide in the well. The test agent solution was added in sufficient amount to provide 250 μM or 500 μM niacinamide or nicotinamide riboside in the well.

Assay [2] has as its system antioxidant response element (ARE). The assay is described as follows: ARE Assay (ARE-32 luciferase reporter cell line). To be noted: 24 hrs, control subtracted. On the procedure: ARE activation was quantitated using the ARE-32 reporter cell line available from CXR-Biosciences as described in the ARE Assay below. ARE-32 is a stable MCF7 cell line containing pGL8x-ARE (8 copies of the rat GST ARE linked to the luciferase gene) and pCDNA3.1, which contains the neomycin selectable marker. Selection was performed in the presence of G418 and resistant clones were isolated. Clones were screened for induction of luciferase in response to tBHQ. The ARE-32 cells are maintained routinely in the DMEM (phenol red free) containing: 10% FBS, 50 units/ml penicillin & 50 μg/ml streptomycin, 0.8 mg/ml G418. Cells are subcultured every 3-4 days. Cells were frozen in medium that contains 90% FBS and 10% DMSO. In a 96 well-plate, seed 1×10^4 cells/well in 100 μl DMEM containing 50 units/ml penicillin, 50 μg/ml streptomycin, 0.8 mg/ml G418 and 10% FBS. Next, incubate the cells at 37° C. in a 5% CO2 incubator for 24 hrs, and then replace the medium with 100 μl fresh media. Treat with test compounds at 2 ul per well, positive control was 25 uM TBHQ. (10 mM tBHQ of stock solution freshly prepared in DMSO). Add 100 ul of media after treatment for a final assay volume of 200 uL. Incubate the cells at 37° C. in the CO2 incubator for another 24 hrs. Assay for luciferase activity with a STEADY-GLO brand assay system according to the manufacturer's instructions. A general schematic for how the ARE reporter assay operates to identify agents that promote transcription off the ARE is described in U.S. Publication No. 2011/0262570. The results of the test are illustrated in Table 1 and FIG. 3. The ARE activity for […] (“NR”), niacinamide (“N”) and the combination of nicotinamide riboside and niacinamide is reported as net luminescence in Table 1. Net luminescence for a test sample is determined by subtracting the luminescence value of the control from the luminescence value of the test sample. The calculated net luminescence for NR+N is the sum of the individual measured luminescence values for NR and N.
For orientation: Reporter assays use an easily measured gene product as a stand-in for the process of interest.

Where [3] appears, read: 400 uM (each) with 500 uM hydrogen peroxide.
Where [4] appears, read: 500 μM test agent with 1.5 mM hydrogen peroxide.

Turning to `OO` [Hydrogen Peroxide, hydrogen peroxide, reference compound], in the assay with keratinocytes (500 uM hydrogen peroxide alone), the “% depletion vs. control (ATP)” value is given as ~97.5% and the “Net Luminescence AVG” value stood at 1556. Besides, the “% depletion vs. control (ATP)” value with keratinocytes (500 uM hydrogen peroxide alone, listed as H2O2) was found to be 97.5%. In assay [1] (1.5 mM hydrogen peroxide alone), the “Observed ECAR” value amounted to 8.96 mpH/min and the “% Change from Control” value is given as −70.0%.
In the case of `NC(=O)c1cccnc1` [N, niacinamide], the “Net Luminescence” value is given as 13 in assay [2] (NR 0.011 w/v %, N 0.0125 w/v %); 26 in assay [2] (NR 0.021 w/v %, N 0.025 w/v %); 71 in assay [2] (NR 0.042 w/v %, N 0.05 w/v %); 75 in assay [2] (NR 0.0842 w/v %, N 0.1 w/v %). The “% depletion vs. control (ATP)” value is listed as 89.7% in the assay with keratinocytes (setting [3]) and “about 89.7%” in the assay with keratinocytes (400 uM (each) with 500 uM hydrogen peroxide, listed as niacinamide). In the assay on keratinocytes (setting [3]), the “Net Luminescence AVG” value was determined as 6539. For the same molecule, the “Observed ECAR” value in assay [1] (setting [4]) is on record as 15.35 mpH/min. Moreover, the “% Change from Control” value in assay [1] (setting [4]) is reported as −48.6%.
With nicotinamide riboside [NR], the “Net Luminescence” value in assay [2] (NR 0.011 w/v %, N 0.0125 w/v %) was determined as 205; in assay [2] (NR 0.021 w/v %, N 0.025 w/v %) it was 594; in assay [2] (NR 0.042 w/v %, N 0.05 w/v %), 1845; in assay [2] (NR 0.0842 w/v %, N 0.1 w/v %), 5176. In addition, the “% depletion vs. control (ATP)” value with keratinocytes (setting [3]) was 96.9%; in the assay on keratinocytes (400 uM (each) with 500 uM hydrogen peroxide, listed as nicotinamide riboside), ~96.9%. In addition, the “Net Luminescence AVG” value in the assay with keratinocytes (setting [3]) was determined as 1971.5. Moreover, the “Observed ECAR” value in assay [1] (setting [4]) is listed as 14.31 mpH/min. Further, the “% Change from Control” value in assay [1] (setting [4]) is −52.1%.

These data come from patent publication US20160317419A1, “METHOD OF IMPROVING SKIN HEALTH AND COMPOSITIONS THEREFOR” (The Procter & Gamble Company, priority 2015, published 2016).
